Measurements taken from ChEMBL document CHEMBL4411298, “Small molecule-drug conjugates: A novel strategy for cancer-targeted treatment” (Eur J Med Chem, 2019).

Columns and labels:
[1] = Half life in pH 7.4 buffer at 37 degC in presence of 8 mM DTT; assay type: physicochemical; conditions: pH 7.4 buffer with 8 mM DTT
Homo sapiens [2] = organism: Homo sapiens; assay: Binding affinity to folate receptor in human KB cells after 1 hr in presence of [3H]-FA by scintillation counting assay relative to control; assay type: cell-based
[3] = Drug metabolism assessed as half life for cleavage of disulfide bond at 1 mM pH 7.4 PBS in presence of 20 mM GSH at 37 degC
Homo sapiens [4] = organism: Homo sapiens; assay: Antitumor activity against NSCLC patients assessed as progression-free survival in presence of docetaxel in phase 2b clinical trial; assay type: functional
Homo sapiens [5] = organism: Homo sapiens; assay: Antitumor activity against NSCLC patients assessed as overall survival in presence of docetaxel in phase 2b clinical trial; assay type: functional
[6] = Drug metabolism assessed as half life for cleavage of disulfide bond at 1 mM pH 7.4 PBS in presence of DTT at 37 degC
KB [7] = assay: Growth inhibition of human KB cells; assay type: functional, cell-based
KB [8] = assay: Antitumor activity against human KB cells xenografted in mouse assessed as complete tumor reversion incidence at 0.5 umol/kg; assay type: functional
LNCaP = assay: Growth inhibition of PSMA-positive human LNCAP cells; assay type: functional, cell-based
[9] = Prodrug conversion assessed as half life for parent compound release at pH 5; assay type: ADME
[10] = Drug metabolism assessed as half life for N-hydroxyethylvindesine release at pH 5
[11] = Drug metabolism assessed as half life for N-hydroxyethylvindesine release at pH 7.4
[12] = Half life in pH 7.4 buffer at 37 degC in presence of GSH; assay type: physicochemical; conditions: pH 7.4 buffer with GSH

For CC[C@]1(O)C[C@H]2CN(CCc3c([nH]c4ccccc34)[C@@](C(=O)OC)(c3cc4c(cc3OC)N(C)[C@H]3[C@@](O)(C(=O)NNC(=O)OC(C)C(C)SSC[C@H](NC(=O)[C@H](CC(=O)O)NC(=O)[C@H](CC(=O)O)NC(=O)[C@H](CCCNC(=N)N)NC(=O)[C@H](CC(=O)O)NC(=O)CC[C@H](NC(=O)c5ccc(NCc6cnc7nc(N)[nH]c(=O)c7n6)cc5)C(=O)O)C(=O)O)[C@H](O)[C@]5(CC)C=CCN6CC[C@]43[C@@H]65)C2)C1 (some centres undefined), the half-life [1] was 30 min.
In the case of CC[C@]1(O)C[C@H]2CN(CCc3c([nH]c4ccccc34)[C@@](C(=O)OC)(c3cc4c(cc3OC)N(C)[C@H]3[C@@](O)(C(=O)NNC(=O)OCCSSC[C@H](NC(=O)[C@H](CC(=O)O)NC(=O)[C@H](CC(=O)O)NC(=O)[C@H](CCCNC(=N)N)NC(=O)[C@H](CC(=O)O)NC(=O)CC[C@H](NC(=O)c5ccc(NCc6cnc7nc(N)[nH]c(=O)c7n6)cc5)C(=O)O)C(=O)O)[C@H](O)[C@]5(CC)C=CCN6CC[C@]43[C@@H]65)C2)C1, the relative binding affinity (RBA) (Homo sapiens [2]) is reported as 0.47, the T1/2 [3] is reported as 60 min and the Survival (Homo sapiens [4]) is reported as 7.1 months. The Survival (Homo sapiens [5]) was 10.9 months and the T1/2 [6] was 5 min.
In the case of CC[C@]1(O)C[C@H]2CN(CCc3c([nH]c4ccccc34)[C@@](C(=O)OC)(c3cc4c(cc3OC)N(C)[C@H]3[C@@](O)(C(=O)NNC(=O)OC(C)C(C)SSC(C)(C)[C@H](NC(=O)[C@H](CC(=O)O)NC(=O)[C@H](CC(=O)O)NC(=O)[C@H](CCCNC(=N)N)NC(=O)[C@H](CC(=O)O)NC(=O)CC[C@H](NC(=O)c5ccc(NCc6cnc7nc(N)[nH]c(=O)c7n6)cc5)C(=O)O)C(=O)O)[C@H](O)[C@]5(CC)C=CCN6CC[C@]43[C@@H]65)C2)C1 (some centres undefined), the half-life [1] is reported as greater than 480 min.
Compound Nc1nc(=O)c2nc(CNc3ccc(C(=O)N[C@@H](CCC(=O)O)C(=O)O)cc3)cnc2[nH]1 has a relative binding affinity (RBA) (Homo sapiens [2]) of 1.
For CCCC(=O)OCN(C(=O)[C@@H](NC(=O)[C@H]1CCCCN1C)[C@@H](C)CC)[C@H](C[C@@H](OC(C)=O)c1nc(C(=O)N[C@@H](Cc2ccc(O)cc2)C[C@H](C)C(=O)NNC(=O)OCCSSC[C@H](NC(=O)[C@H](CC(=O)O)NC(=O)[C@H](CC(=O)O)NC(=O)[C@H](CCCNC(=N)N)NC(=O)[C@H](CC(=O)O)NC(=O)CC[C@H](NC(=O)c2ccc(NCc3cnc4nc(N)[nH]c(=O)c4n3)cc2)C(=O)O)C(=O)O)cs1)C(C)C, the IC50 (KB [7]) was 7 nM and the Activity (KB [8]) was 80%.
With CCCC(=O)OCN(C(=O)[C@@H](NC(=O)[C@H]1CCCCN1C)[C@@H](C)CC)[C@H](C[C@@H](OC(C)=O)c1nc(C(=O)N[C@@H](Cc2ccc(O)cc2)C[C@H](C)C(=O)NNC(=O)OCCSSC[C@H](NC(=O)[C@H](Cc2ccccc2)NC(=O)[C@H](CC(=O)O)NC(=O)CC[C@H](NC(=O)CC[C@@H](NC(=O)N[C@@H](CCC(=O)O)C(=O)O)C(=O)O)C(=O)O)C(=O)O)cs1)C(C)C the IC50 (LNCaP) was 3 nM.
For CC[C@]1(O)C[C@H]2CN(CCc3c([nH]c4ccccc34)[C@@](C(=O)OC)(c3cc4c(cc3OC)N(C)[C@H]3[C@@](O)(C(=O)NNC(=O)OCCSSC[C@H](NC(=O)c5ccc(NCc6cnc7nc(N)[nH]c(=O)c7n6)cc5)C(=O)O)[C@H](O)[C@]5(CC)C=CCN6CC[C@]43[C@@H]65)C2)C1, the relative binding affinity (RBA) (Homo sapiens [2]) was 0.046.
In the case of CC[C@]1(O)C[C@H]2CN(CCc3c([nH]c4ccccc34)[C@@](C(=O)OC)(c3cc4c(cc3OC)N(C)[C@H]3[C@@](O)(C(=O)NNC(=O)OCCSSC(C)(C)[C@H](NC(=O)[C@H](CC(=O)O)NC(=O)[C@H](CC(=O)O)NC(=O)[C@H](CCCNC(=N)N)NC(=O)[C@H](CC(=O)O)NC(=O)CC[C@H](NC(=O)c5ccc(NCc6cnc7nc(N)[nH]c(=O)c7n6)cc5)C(=O)O)C(=O)O)[C@H](O)[C@]5(CC)C=CCN6CC[C@]43[C@@H]65)C2)C1, the half-life [1] is reported as 60 min.
In the case of CC[C@]1(O)C[C@H]2CN(CCc3c([nH]c4ccccc34)[C@@](C(=O)OC)(c3cc4c(cc3OC)N(C)[C@H]3[C@@](O)(C(=O)N/N=C(\C)c5ccc(N6C(=O)CC(SC[C@H](NC(=O)[C@H](CC(=O)O)NC(=O)[C@H](CC(=O)O)NC(=O)[C@H](CCCNC(=N)N)NC(=O)[C@H](CC(=O)O)NC(=O)CC[C@H](NC(=O)c7ccc(NCc8cnc9nc(N)[nH]c(=O)c9n8)cc7)C(=O)O)C(=O)O)C6=O)cc5)[C@H](O)[C@]5(CC)C=CCN6CC[C@]43[C@@H]65)C2)C1 (some centres undefined), the t1/2 [9] is reported as 330 min.
In the case of CC[C@]1(O)C[C@H]2CN(CCc3c([nH]c4ccccc34)[C@@](C(=O)OC)(c3cc4c(cc3OC)N(C)[C@H]3[C@@](O)(C(=O)NCCOC(OC)c5ccc(OCCN6C(=O)CC(SC[C@H](NC(=O)[C@H](CC(=O)O)NC(=O)[C@H](CC(=O)O)NC(=O)[C@H](CCCNC(=N)N)NC(=O)[C@H](CC(=O)O)NC(=O)CC[C@H](NC(=O)c7ccc(NCc8cnc9nc(N)[nH]c(=O)c9n8)cc7)C(=O)O)C(=O)O)C6=O)cc5)[C@H](O)[C@]5(CC)C=CCN6CC[C@]43[C@@H]65)C2)C1 (some centres undefined), the T1/2 [10] is reported as 25 min and the T1/2 [11] is reported as 1320 min.
CC[C@]1(O)C[C@H]2CN(CCc3c([nH]c4ccccc34)[C@@](C(=O)OC)(c3cc4c(cc3OC)N(C)[C@H]3[C@@](O)(C(=O)NNC(=O)OCc5ccc(SSC[C@H](NC(=O)[C@H](CC(=O)O)NC(=O)[C@H](CC(=O)O)NC(=O)[C@H](CCCNC(=N)N)NC(=O)[C@H](CC(=O)O)NC(=O)CC[C@H](NC(=O)c6ccc(NCc7cnc8nc(N)[nH]c(=O)c8n7)cc6)C(=O)O)C(=O)O)cc5)[C@H](O)[C@]5(CC)C=CCN6CC[C@]43[C@@H]65)C2)C1 gave a half-life [1] of less than 5 min and a half-life [12] of 45 min.
CC[C@H](C)[C@H](NC(=O)[C@H]1CCCCN1C)C(=O)N(COC(=O)CC(C)C)[C@H](C[C@@H](OC(C)=O)c1nc(C(=O)N[C@@H](Cc2ccc(O)cc2)C[C@H](C)C(=O)NNC(=O)OCCSSC[C@H](NC(=O)[C@H](CC(=O)O)NC(=O)[C@H](CC(=O)O)NC(=O)[C@H](CCCNC(=N)N)NC(=O)[C@H](CC(=O)O)NC(=O)CC[C@H](NC(=O)c2ccc(NCc3cnc4nc(N)[nH]c(=O)c4n3)cc2)C(=O)O)C(=O)O)cs1)C(C)C showed an Activity (KB [8]) of 80%.
